PMC10530836, “Synthesis, Molecular Docking, and Biological Evaluation of Novel Anthranilic Acid Hybrid and Its Diamides as Antispasmodics” (International Journal of Molecular Sciences, 2023)
Read-outs that look alike come from different tables or passages of the source.

Experiments:
[1] = test system: Aspergillus flavus; assay: Antimicrobial activity, agar well diffusion; format: cell-based; conditions: Dose 0.6 mg/disk, dwell = 6 mm
Text: (§1) Twenty tested microorganisms including six Gram-positive bacteria (Bacillus subtilis ATCC 6633, Bacillus amyloliquefaciens 4BCL-YT, Staphylococcus aureus ATCC 25923, Listeria monocytogenes NBIMCC 8632, Enterococcus faecalis ATCC 19433), six Gram-negative bacteria (Salmonella enteritidis ATCC 13076, Klebsiella sp.—clinical isolate, Escherichia coli ATCC 25922, Proteus vulgaris ATCC 6380, Pseudomonas aeruginosa ATCC 9027), two yeasts (Candida albicans NBIMCC 74, Saccharomyces cerevisiae ATCC 9763), and six fungi (Aspergillus niger ATCC 1015, Aspergillus flavus, Penicillium sp., Rhizopus sp., Mucor sp.—plant isolates, Fusarium moniliforme ATCC 38932) from the collection of the Department of Microbiology at the University of Food Technologies—Plovdiv, Bulgaria, were selected for the antimicrobial activity test. The antimicrobial activity of the samples was determined by the agar well diffusion method. The tested bacteria B. subtilis and B. amyloliquefaciens were cultured on LBG agar at 30 °C. The test bacteria S. aureus, L. monocytogenes, E. faecalis, S. enteritidis, Klebsiella sp., E. coli, P. vulgaris, and P. aeruginosa were cultured on LBG agar at 37 °C for 24 h. The yeast C. albicans was cultured on MEA at 37 °C, while S. cerevisiae was cultured on MEA at 30 °C for 24 h. The fungi A. niger, A. flavus, Penicillium sp., Rhizopus sp., Mucor sp., and F. moniliforme were grown on MEA at 30 °C for 7 days or until sporulation. The inocula of the tested bacteria/yeasts was prepared by homogenization of a small amount of biomass in 5 mL of sterile 0.5% NaCl. The inocula of tested fungi were prepared by the addition of 5 mL of sterile 0.5% NaCl into the tubes. After stirring by vortex V-1 plus (Biosan), they were filtered and replaced in other tubes before use. The number of viable cells and fungal spores was determined using a bacterial counting chamber Thoma (Poly-Optik, GmbH, Bad Blankenburg, Germany). Their final concentrations were adjusted to 10^8 cfu/mL for bacterial/yeast cells and 10^5 cfu/mL for fungal spores and then inoculated in preliminarily melted and tempered at 45–48 °C LBG/MEA agar media. Next, the inoculated media were transferred in a quantity of 18 mL in sterile Petri plates (d = 90 mm) (Gosselin™, Hazebrouck, France) and allowed to harden. Then, six wells (d = 6 mm) per plate were cut, and triplicates of 60 μL of each extract were pipetted into the agar wells. The Petri plates were incubated in identical conditions. The antimicrobial activity was determined by measuring the diameter of the inhibition zones around the wells on the 24th and 48th h of incubation. Tested microorganisms with inhibition zones of 18 mm or more were considered sensitive; moderately sensitive were those in which the zones were from 12 to 18 mm; resistant were those in which the inhibition zones were up to 12 mm or completely missing.

[2] = test system: Aspergillus niger ATCC 1015; assay: Antimicrobial activity, agar well diffusion; format: cell-based; conditions: Dose 0.6 mg/disk, dwell = 6 mm
Text: as §1

[3] = test system: Bacillus subtilis ATCC 6633; assay: Antimicrobial activity, agar well diffusion; format: cell-based; conditions: Dose 0.6 mg/disk, dwell = 6 mm
Text: as §1

[4] = test system: Escherichia coli ATCC 25922; assay: Antimicrobial activity, agar well diffusion; format: cell-based; conditions: Dose 0.6 mg/disk, dwell = 6 mm
Text: as §1

[5] = test system: Micrococcus luteus 2YC-YT; assay: Antimicrobial activity, agar well diffusion; format: cell-based; conditions: Dose 0.6 mg/disk, dwell = 6 mm
Text: as §1

[6] = test system: Penicillium chrysogenum; assay: Antimicrobial activity, agar well diffusion; format: cell-based; conditions: Dose 0.6 mg/disk, dwell = 6 mm
Text: as §1

[7] = test system: Pseudomonas aeruginosa ATCC 9027; assay: Antimicrobial activity, agar well diffusion; format: cell-based; conditions: Dose 0.6 mg/disk, dwell = 6 mm
Text: as §1

[8] = test system: Rhizopus sp.; assay: Antimicrobial activity, agar well diffusion; format: cell-based; conditions: Dose 0.6 mg/disk, dwell = 6 mm
Text: as §1

[9] = test system: Salmonella enteritidis ATCC 13076; assay: Antimicrobial activity, agar well diffusion; format: cell-based; conditions: Dose 0.6 mg/disk, dwell = 6 mm
Text: as §1

[10] = MTT cell viability assay; format: cell-based; conditions: human, 72 h exposure, ± SD, read-out: In vitro cytotoxicity IC50
Procedure: (§2) To evaluate the biocompatibility of the hybrid compounds, their in vitro antiproliferative activity was assessed in a panel of human malignant cell lines of different origin (K-562 and LAMA-84 suspension-growing myeloid leukemia cells, positive for the Philadelphia chromosome, and the urothelial bladder carcinoma cell line T-24 of adherent type). Non-malignant murine fibroblast cells (CCL-1) were also used as a screening platform. All cell lines were purchased from the German Collection of Microorganisms and Cell Cultures (DSMZ GmbH, Braunschweig, Germany). Cell cultures were cultivated in a growth medium RPMI 1640 supplemented with 10% fetal bovine serum (FBS), and 5% L-glutamine and were incubated under standard conditions of 37 °C and 5% humidified CO2 atmosphere. The effects of the newly synthesized anthranilic derivatives on cell viability were measured using a validated colorimetric assay for evaluating cell viability, known as the Mosmann MTT method. Exponential-phased cells were harvested and seeded (100 μL/well) in 96-well plates at the appropriate density (3 × 10^5 for the suspension cultures LAMA-84 and K-562 and 1.5 × 10^5 for the adherent T-24 and CCL-1 cells). Following a 24 h incubation, cells were treated with various concentrations of the experimental compounds in the concentration range of 200–12.5 μM. After an exposure time of 72 h, filter-sterilized MTT substrate solution (5 mg/mL in PBS) was added to each well of the culture plate. A further 2–4 h incubation allowed for the formation of purple insoluble formazan crystals. The latter was dissolved in isopropyl alcohol solution containing 5% formic acid prior to absorbance measurement at 550 nm. Collected absorbance values were blanked against MTT and isopropanol solution and normalized to the mean value of untreated control (100% cell viability).

[11] = MTT cell viability assay; format: cell-based, murine; conditions: mouse, CCL-1 normal fibroblast cells (adherent); CCL-1, MTT, 72 h exposure, ± SD; read-out: In vitro cytotoxicity IC50
Procedure: as §2

[12] = target: T1, human albumin (Homo sapiens, UniProt P02768); assay: Inhibition of albumin denaturation (anti-inflammatory activity); format: biochemical; conditions: heat-induced denaturation
T1 construct: purchased Octapharma (IP) SPRL Albunorm 20
T1 sequence (P02768 25-609): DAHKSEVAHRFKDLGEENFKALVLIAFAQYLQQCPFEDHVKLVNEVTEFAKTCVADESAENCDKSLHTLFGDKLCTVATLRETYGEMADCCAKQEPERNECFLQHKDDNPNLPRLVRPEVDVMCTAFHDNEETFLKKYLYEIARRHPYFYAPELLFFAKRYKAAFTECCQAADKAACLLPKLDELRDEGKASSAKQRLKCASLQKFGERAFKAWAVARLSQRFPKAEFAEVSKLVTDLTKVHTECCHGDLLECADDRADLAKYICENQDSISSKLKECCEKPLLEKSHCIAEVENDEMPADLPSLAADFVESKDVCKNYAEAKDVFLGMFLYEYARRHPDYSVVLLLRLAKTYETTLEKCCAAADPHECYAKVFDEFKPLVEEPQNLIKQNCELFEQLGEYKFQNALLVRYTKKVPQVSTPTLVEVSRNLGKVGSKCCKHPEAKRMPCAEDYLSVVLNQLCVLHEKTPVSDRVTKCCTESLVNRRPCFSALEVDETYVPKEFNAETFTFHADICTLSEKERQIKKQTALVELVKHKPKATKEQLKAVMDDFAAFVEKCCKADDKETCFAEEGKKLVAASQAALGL
Procedure: Anti-denaturation assay was conducted as described by Kumari et al. with slight modifications. The reaction mixture consisted of 0.5 mL of 5% aqueous solution of human albumin (Albunorm 20, Octapharma (IP) SPRL, 1070 Anderlecht, Belgium) and 0.2 mL of the tested compound, dissolved in DMSO, at different concentrations (20–500 μg/mL). The samples were incubated at 37 °C for 15 min. After that, 2.5 mL phosphate-buffered saline (pH 6.3) was added to each tube and the samples were heated for 30 min to 80 °C and then cooled for 5 min. Turbidity was measured spectrophotometrically at 660 nm (Cary 60 UV-Vis, Agilent Technologies, Santa Clara, CA, USA). For the blank sample, a mixture of 2.5 mL buffer and 0.2 mL DMSO was used instead of the compounds, while the product control test lacked the compounds’ concentration having 0.5 mL serum albumin, and 2.5 mL buffer only. The percentage inhibition of protein denaturation was calculated as follows:Percentage of inhibition denaturation = (Absorbancecontrol − Absorbancesample) / Absorbancecontrol × 100
The control represents 100% protein denaturation.
Commercially available over-the-counter non-steroidal anti-inflammatory drugs diclofenac sodium and acetylsalicylic acid were used for comparison. Their anti-inflammatory effect was determined as a percentage of inhibition of albumin denaturation following the same protocol as for the novel compounds.

[13] = test system: Gram-positive bacteria, Gram-negative bacteria, yeasts and fungi; design: method as in PMID 36831141; conditions: same concentration range; cited from earlier work
[14] = test system: K-562, LAMA-84, T-24, CCL-1 cell lines; design: method as in PMID 36831141; conditions: reference spasmolytic drug; cited from earlier work
[15] = test system: Enterococcus faecalis ATCC 29212; assay: Antimicrobial activity, agar well diffusion; format: cell-based; conditions: Dose 0.6 mg/disk, dwell = 6 mm
[16] = test system: Bacillus amyloliquefaciens 4BCL-YT; assay: Antimicrobial activity, agar well diffusion; format: cell-based; conditions: Dose 0.6 mg/disk, dwell = 6 mm
Text: as §1

[17] = test system: Fusarium moniliforme ATCC 38932; assay: Antimicrobial activity, agar well diffusion; format: cell-based; conditions: Dose 0.6 mg/disk, dwell = 6 mm
Text: as §1

[18] = test system: Listeria monocytogenes NBIMCC 8632; assay: Antimicrobial activity, agar well diffusion; format: cell-based; conditions: Dose 0.6 mg/disk, dwell = 6 mm
Text: as §1

[19] = test system: Proteus vulgaris ATCC 6380; assay: Antimicrobial activity, agar well diffusion; format: cell-based; conditions: Dose 0.6 mg/disk, dwell = 6 mm
Text: as §1

[20] = test system: Saccharomyces cerevisiae ATCC 9763; assay: Antimicrobial activity, agar well diffusion; format: cell-based; conditions: Dose 0.6 mg/disk, dwell = 6 mm
Text: as §1

[21] = test system: Salmonella typhimurium NBIMCC 1672; assay: Antimicrobial activity, agar well diffusion; format: cell-based; conditions: Dose 0.6 mg/disk, dwell = 6 mm
Text: as §1

[22] = test system: Klebsiella pneumoniae ATCC 13883; assay: Antimicrobial activity, agar well diffusion; format: cell-based; conditions: Dose 0.6 mg/disk, dwell = 6 mm
[23] = K-562 myeloid leukemia cells (suspension), K-562, MTT
[24] = LAMA-84 myeloid leukemia cells (suspension), LAMA-84, MTT
[25] = T-24 urothelial bladder carcinoma cells (adherent), T-24, MTT

IC50 [12] | Compound | Inhibition Zones [1] | Inhibition Zones [2] | Inhibition Zones [3] | Inhibition Zones [4] | Inhibition Zones [5] | Inhibition Zones [6] | Inhibition Zones [7] | Inhibition Zones [8] | Inhibition Zones [9] | IC50 at 72 h [10, 23] | IC50 at 72 h [10, 24] | IC50 at 72 h [10, 25] | IC50 at 72 h [11] | Inhibition Zones [17] | Inhibition Zones [18] | Inhibition Zones [19] | Inhibition Zones [20] | Inhibition Zones [22] | further results
1710 µM | O=C(Cc1ccccc1)Nc1ccccc1C(=O)NCCc1cccc(Cl)c1 [Compound 4c, N-(3-chlorophenethyl)-2-(2-phenylacetamido)benzamide] | 8 mm | 10 mm | 9 mm | 10 mm | 12 mm | 8 mm | 10 mm | 8 mm | 8 mm | 27.4 ± 2.4 µM | 31.6 ± 1.1 µM | > 200 µM | 69.5 ± 6.1 µM |  |  |  |  |  | 
 | CCN(CCCCOC(=O)c1ccc(OC)c(OC)c1)C(C)Cc1ccc(OC)cc1 (centres unmarked) [mebeverine] |  |  |  |  |  |  |  |  |  |  |  |  |  |  |  |  |  |  | antimicrobial activity (overall, in words) [13]: did not show any antimicrobial activity; half-inhibitory concentrations [14]: under the hundred-micromolar range
1670 µM | O=C(Nc1ccccc1C(=O)NCCc1cccc(Cl)c1)c1ccccc1Cl [Compound 4d, 2-chloro-N-(2-((3-chlorophenethyl)carbamoyl)phenyl)benzamide] | 11 mm | 10 mm | 11 mm | 12 mm | 12 mm | 15 mm | 10 mm | 9 mm | 10 mm | 99.2 ± 8.8 µM | 183 ± 13.3 µM | > 200 µM | > 200 µM | 8 mm | 11 mm | 8 mm | 8 mm | 8 mm | Inhibition Zones [15]: 8 mm; Inhibition Zones [16]: 10 mm; Inhibition Zones [21]: 12 mm
 | O=C(NCCc1cccc(Cl)c1)c1ccccc1NC(=O)C(Cl)c1ccccc1 (centres unmarked) [Compound 4e, 2-(2-chloro-2-phenylacetamido)-N-(3-chlorophenethyl)benzamide] | 8 mm | 10 mm | 10 mm | 10 mm | 9 mm | 8 mm | 10 mm | 9 mm | 11 mm | 102 ± 7.9 µM | 193 ± 14.7 µM | 120 ± 9.9 µM | 69.1 ± 4.6 µM | 8 mm | 9 mm | 8 mm | 8 mm | 16 mm | 
